Columns and labels:
[1] = Single-channel recordings on planar bilayer lipid membrane; details: DPhPC/decane BLM, 100 mM HCl; for single-channel conductance: from current histograms
Experimental: Proton channels formed by gA can be observed by measuring electric current across a planar bilayer lipid membrane (BLM), if the experiments are performed in the acidic pH range [19], [20], [26], [50]. Figure 6 presents typical recordings of fluctuations of transmembrane current induced by gA and [Glu1]gA (panels A and D of Fig. 6) which were obtained under the same conditions. The single-channel conductance of [Glu1]gA (150 pS) was close to that of gA (140 pS) as judged from the current histograms (panels B and E), while the single-channel lifetime of the analogue (about 16 ms as estimated from the exponential fit to open channel duration histogram, panel F of Fig. 6) was much shorter than that of gA (116 ms, panel C).
Figure 6 Single-channel recordings (A, D) and the corresponding current histograms (B, E) of gramicidin A ([…], A, B, and C) and [Glu1]gA (2 nanogram/ml, D, E, and F) at a voltage of 100 mV applied to the DPhPC/decane membrane. The solution was 100 mM HCl. (C, F) Open state duration histograms fitted by a single exponential with a time constant of 116 ms (C) and 16 ms (F). The records were filtered at 100 Hz (A, B, and C) or 1000 Hz (D, E, and F).
(§1) Planar bilayer lipid membranes (BLM) were formed from a 2% solution of diphytanoylphosphatidylcholine (DPhPC) (Avanti Polar Lipids, Alabaster, AL) in n-decane on a hole in a Teflon partition (0.5-mm diameter) separating two compartments of a cell containing aqueous buffer solutions [64].The electric current (I) was recorded under voltage-clamp conditions. Voltage was applied to BLMs with Ag-AgCl electrodes placed directly into the cell. The current measured by means of a patch-clamp amplifier (Warner Instruments, Hamden, CT, model BC-525C) was digitized using an NI-DAQmx (National Instruments, Austin, TX) and analyzed with a personal computer with the use of WinWCP Strathclyde Electrophysiology Software designed by J. Dempster (University of Strathclyde, UK).

[2] = Induction of electrical current across planar BLM with and without liposomes; details: for effect of liposomes on induction of BLM current: liposomes 1 µg/ml DPhPC, peptide and liposomes at one side, gA 2 nanogram/ml, [Glu1]gA 200 nanogram/ml, 100 mM KCl, 10 mM Tris, 10 mM MES, pH 7.0, 50 mV
Description: The difference in efficacy of gA and [Glu1]gA described here in a variety of systems could be associated with different abilities of the peptides to redistribute between membrane structures and/or their diverse permeability through membranes. To cause a reduction of an electrical potential difference across the inner mitochondrial membrane, peptide molecules must penetrate through the outer membrane in the case of isolated mitochondria, and additionally through the plasma membrane in the case of cells. While encountering with a series of membrane structures, e.g. endosomes, on their way from the plasma to the mitochondrial membrane, peptides may undergo numerous cycles of membrane binding and desorption. To study such a process in a model system, we measured the effect of liposome addition on the time course of the induction of electrical current across a planar BLM by gA and [Glu1]gA. In these experiments we added liposomes and peptides at one side of BLM in order to mimic the addition of the peptides to mitochondria and cells.
Figure 7 Effect of liposomes (1 µg/ml DPhPC) on the induction of electrical current on planar lipid bilayer by gA (2 nanogram/ml, panel A) and [Glu1]gA (200 nanogram/ml, panel B). The peptides and liposomes were added at one side of the membrane. The solution was 100 mM KCl, 10 mM Tris, 10 mM MES, pH = 7.0, BLM voltage was 50 mV.
as §1, with “Voltage was applied to BLMs with Ag-AgCl electrodes placed directly into the cell.” left out

[3] = Dissipation of pH gradient in pyranine-loaded liposomes; details: 2 µg/ml peptide
Experimental: Figure 5 Dissipation of the pH gradient on membranes of pyranine-loaded liposomes by gA and [Glu1]gA (both 2 µg/ml). Inner liposomal pH was estimated from pyranine fluorescence intensity measured at 505 nm upon excitation at 455 nm. Nigericin (1 µM) was added at 400–420 s to equilibrate the pH. Control, a record without peptides.
The lumenal pH of the liposomes was assayed with pyranine as described in [11] by a slightly modified procedure of [63]. To prepare pyranine-loaded liposomes, lipids (5 mg egg yolk phosphatidylcholine and 1 mg cholesterol) in a chloroform suspension were dried in a round-bottom flask under a stream of nitrogen. The lipids were then resuspended in buffer (100 mM KCl, 20 mM MES, 20 mM MOPS, 20 mM Tricine titrated with KOH to pH 6.0) containing 0.5 mM pyranine. The suspension was vortexed and then freeze-thawed three times. Unilamellar liposomes were prepared by extrusion through 0.1-µm-pore size Nucleopore polycarbonate membranes using an Avanti Mini-Extruder. The unbound pyranine was then removed by passage through a Sephadex G-50 coarse column equilibrated with the same buffer solution. […] The pH was estimated from the intensities of fluorescence measured at 505 nm upon excitation at 455 nm, as monitored with the Panorama Fluorat 02 spectrofluorimeter. At the end of each recording, 1 µM nigericin was added to dissipate the remaining pH gradient.

[4] = test system: lysosomes of rat kidney cells; experiment: Lysosome integrity and pH gradient by Lysotracker Green; format: cell-based; details: 0.1 mg/ml peptide, 1 µM Lysotracker Green
Experimental: In further experiments, we tested the interaction of [Glu1]gA with lysosomes of rat kidney cells by using the dye Lysotracker Green known to accumulate in highly acidic interior of lysosomes. […] Thus, [Glu1]gA appeared to interact specifically with mitochondrial membranes leading to their partial depolarization.
Figure 4 Micrographs of rat kidney cell culture loaded with Lysotracker Green in the absence (A), and in the presence of 0.1 mg/ml (B) of [Glu1]gA.
Kidneys were excised aseptically from 3–7 day old rats, then homogenized and placed in balanced Hanks solution at pH 7.4. After several washes the dispensed tissue was placed in 0.1% collagenase and incubated for 20–30 min at 37°C. Large pieces were removed, and cells were sedimented by gentle centrifugation (50 g) for 3 min. The pellet was resuspended in DMEM/F-12 1:1 containing 10% fetal calf serum (FCS) and seeded in culture plates and glass-bottom dishes. Cells were cultivated in a CO2 (5%) incubator for 1–2 days before the experiments. The gA or [Glu1]gA solution was added to the cultured epithelial cells to appropriate concentration and incubated for 10 min at 37°C in DMEM/F-12 medium containing 10 mM Hepes-NaOH. […] To minimize the contribution of photo-induced mitochondria/cell damage to the relative fluorescence intensities, image analysis was performed on the average of the first four scans only. […]

rat liver mitochondria = experiment: Respiration of isolated mitochondria (Clark-type oxygen electrode); details: 25°C, pH 7.4, 100 nM = 200 nanogram/ml, data not shown
[5] = test system: rat kidney cell culture (renal tubular epithelium cells); format: cell-based
Experimental: (§2) In subsequent series of experiments, the uncoupling action of [Glu1]gA was tested in rat kidney cell culture loaded with the potential sensitive dye tetramethylrhodamine ethyl ester (TMRE). […] By contrast, the parent gA depolarized mitochondria in cells at substantially higher concentrations starting from 0.1 mg/ml (Fig. 2C). […] In particular, treatment with 50 µg/ml gA caused about 80% cell death, while [Glu1]gA provoked only about 15% cell death. […] The increased effective concentrations of the [Glu1]gA in cell culture with respect to those with isolated mitochondria (Fig. 1) could be attributed to poor peptide permeation through plasma membrane.
Confocal images of cultured renal cells loaded with TMRE in control (A) and after treatment with 0.01 mg/ml [Glu1]gA (B). Diagram (C) presents the mean intensity of TMRE fluorescence through 10 confocal images for each [Glu1]gA (solid bars) or gA (hatched bars) concentration.
Kidneys were excised aseptically from 3–7 day old rats, then homogenized and placed in balanced Hanks solution at pH 7.4. After several washes the dispensed tissue was placed in 0.1% collagenase and incubated for 20–30 min at 37°C. Large pieces were removed, and cells were sedimented by gentle centrifugation (50 g) for 3 min. The pellet was resuspended in DMEM/F-12 1:1 containing 10% fetal calf serum (FCS) and seeded in culture plates and glass-bottom dishes. Cells were cultivated in a CO2 (5%) incubator for 1–2 days before the experiments. The gA or [Glu1]gA solution was added to the cultured epithelial cells to appropriate concentration and incubated for 10 min at 37°C in DMEM/F-12 medium containing 10 mM Hepes-NaOH. Next, cells were incubated with 100 nM TMRE (Invitrogen, USA) or 1 µM Lysotracker Green (Invitrogen, USA) for 30 min followed by washing in DMEM/F-12. Then renal tubular epithelial cells were imaged with an LSM510 inverted confocal microscope (Carl Zeiss Inc., Jena, Germany). Analysis of fluorochrome incorporation was performed in glass-bottom dishes (MatTek Corp., USA) with excitation at 488 and 543 nm and emission collected at 510–530 and 560–590 nm, for Lysotracker and TMRE, correspondingly. To minimize the contribution of photo-induced mitochondria/cell damage to the relative fluorescence intensities, image analysis was performed on the average of the first four scans only. Images were processed using ImageJ software (NIH, Bethesda, MD, USA).

[6] = test system: rat liver mitochondria (inner mitochondrial membrane potential); experiment: Mitochondrial membrane potential measured by safranine O fluorescence; details: for decrease of mitochondrial membrane potential: isolated rat liver mitochondria 0.4 mg/ml protein, 5 mM succinate + 1 µM rotenone, 5 nM (about 10 nanogram/ml) peptide, safranine O 10 µM, pH 7.4; for series of the uncoupling potency (relative drop in membrane potential, concentration dependence): isolated rat liver mitochondria, measured at 300 s after peptide addition, safranine O
Experimental: To assess the effect of gramicidin derivatives on the mitochondrial membrane potential, we assayed the latter with the potential-dependent dye safranine O. The fluorescence of this dye (at a high concentration) is known to drop with increasing the mitochondrial membrane potential and rise upon the addition of protonophores [42], [47].
Control, no other additions. gA, [Glu1]gA, [Glu3]gA, [Lys1]gA, and [Lys3]gA show traces after the addition of 5 nM (i.e. about 10 nanogram/ml) of a corresponding peptide at t = 0 s. Trace “excess [Glu1]gA” was measured with 1 µg/ml peptide. Panel B. Dose dependence of the effect of [Glu1]gA on mitochondrial membrane potential.
Experiments were performed on outbred white male rats (180–200 g) fed ad libitum. […] Rat liver mitochondria were isolated by differential centrifugation [60] in a medium containing 250 mM sucrose, 10 mM MOPS, 1 mM EGTA, and bovine serum albumin (0.1 mg/ml), pH 7.4. The final washing was preformed in the medium of the same composition. Protein concentration was determined using bicinchoninic acid as described in [61].
Safranine O (10 µM) was used as a membrane potential probe [42]. Fluorescence intensity at 580 nm (excitation at 520 nm) was measured with a Panorama Fluorat 02 spectrofluorimeter (Lumex, Russia). The medium for measurements contained 300 mM sucrose, 20 mM MOPS, 0.5 mM EDTA, 0.5 mg/ml BSA, pH 7.4. Mitochondrial protein concentration was 0.4 mg/ml.

[7] = test system: cultured renal tubular cells; experiment: MTT cell viability test; format: cell-based; details: 24 h
Experimental: as §2
Figure 3 Viability of cultured renal cells according to the MTT test after 24 h treatment with appropriate concentration of [Glu1]gA or gA in culture medium without serum. Experiments were performed 2 times in which 10 wells per each concentration were analyzed.
Cell viability was evaluated by a widely used methyl thiazol tetrazolium (MTT) test. […] Then the dye solution was removed, 50 µl DMSO per well was added and absorbance at 540 nm was measured. Experiments were performed twice in which 10 wells per each concentration were analyzed.

## HCO-EGALAVVVWLWLWLW-NH(CH2)2OH [[Glu1]gA]
[1]; 100 mV
  single-channel conductance: 150 pS
[1]; symmetrical addition
  concentration required to observe single channels, relative to gA: much higher (approx. by two orders of magnitude)
[2]
  effect of liposomes on induction of BLM current: accelerated many fold the induction of the current
[2]; planar BLM, peptide added from one side of the membrane
  concentration required to induce current similar to that of gA, one-sided addition: about two orders of magnitude higher
[3]
  rate of pH gradient dissipation (enhancement of liposome-entrapped pyranine fluorescence): slower than that provoked by the parent peptide gA
[4]
  lysosome integrity and pH gradient across lysosomal membranes (Lysotracker fluorescence intensity): No change
Rat liver mitochondria
  concentration stimulating mitochondrial respiration up to the level of fully uncoupled respiration: higher than 100 nM
[5]; cells versus isolated mitochondria
  effective concentrations in cells relative to isolated mitochondria: higher in cells than in mitochondria by three orders of magnitude
[5]; mitochondria in cell culture
  depolarizing concentrations in cell culture relative to gA: by an order of magnitude lower than those of gA
[5]; rat kidney cell culture, 10 µg/ml (about 5 µM) peptide, 10 min at 37°C, then 100 nM TMRE 30 min
  decrease in the mitochondrial membrane potential (TMRE fluorescence): more than a two-fold decrease
[5]; rat kidney cells, 0.1 mg/ml peptide
  depolarization of mitochondria in cells: maximal depolarization of mitochondria
[6]
  decrease of mitochondrial membrane potential: most efficient in decreasing the mitochondrial membrane potential
  series of the uncoupling potency (relative drop in membrane potential, concentration dependence): [Glu1]gA > = gA > [Glu3]gA > [Lys3]gA > [Lys1]gA

## HCO-KGALAVVVWLWLWLW-NH(CH2)2OH [[Lys1]gA]
[6]
  series of the uncoupling potency (relative drop in membrane potential, concentration dependence): [Glu1]gA > = gA > [Glu3]gA > [Lys3]gA > [Lys1]gA

## HCO-VGELAVVVWLWLWLW-NH(CH2)2OH [[Glu3]gA]
[6]
  series of the uncoupling potency (relative drop in membrane potential, concentration dependence): [Glu1]gA > = gA > [Glu3]gA > [Lys3]gA > [Lys1]gA

## HCO-VGKLAVVVWLWLWLW-NH(CH2)2OH [[Lys3]gA]
[6]
  series of the uncoupling potency (relative drop in membrane potential, concentration dependence): [Glu1]gA > = gA > [Glu3]gA > [Lys3]gA > [Lys1]gA

## gramicidin A [gA, reference compound]
[1]; 100 mV
  single-channel lifetime (open state duration, single-exponential time constant): 116 ms
  single-channel conductance: 140 pS
[2]
  effect of liposomes on induction of BLM current: somewhat slower in the presence of liposomes
[7]; 50 µg/ml peptide, DMEM/F12 without serum, 2 experiments, 10 wells per concentration
  cell death (MTT): about 80%
[7]; medium without serum
  concentration limit to which certain toxicity is seen (MTT): ≥ 100 ng/mL
[5]; rat kidney cell culture, TMRE
  concentration from which mitochondria in cells are depolarized: ≥ 0.1 mg/mL
[6]
  decrease of mitochondrial membrane potential: most efficient in decreasing the mitochondrial membrane potential
  series of the uncoupling potency (relative drop in membrane potential, concentration dependence): [Glu1]gA > = gA > [Glu3]gA > [Lys3]gA > [Lys1]gA

Reference: paper PMC3404012, “N-Terminally Glutamate-Substituted Analogue of Gramicidin A as Protonophore and Selective Mitochondrial Uncoupler” (PLoS ONE, 2012)
